Experimental data reported in patent EP0354046A2 (MAY & BAKER LIMITED, priority 1988, dated 1990).

Tests used:
Assay type in all cases: in vivo
Eleusine indica = experiment: Glasshouse experiment 3, % inhibition of growth (fresh weight, 19 days)
Experimental: (§1) A series of experiments was carried out to determine the nature of the biological interaction between bromoxynil and five compounds of general formula I on a range of weed species. The 3-benzoyl-piperidine-2,4-dione derivatives were compounds 1, 74, 99, 110 and 126. […] The growth stages of the plants at spraying are also presented with the results. Agricultural surfactant (nonyl phenol ethylene oxide condensate containing 9 moles ethylene oxide marketed as 'Agral') was added to all spray dilutions to give 0.2% v/v concentration.
(§2) After spraying the pots were arranged in randomised blocks in a glasshouse and watered as necessary. After 19 days the fresh weight of vegetation in each pot was determined. The mean fresh weights were used to calculate the percentage inhibition of each species thus [formula]
(§3) E = X + Y […] where E, X and Y are percentage inhibition of growth.
(§4) The ED values were then used to plot an isobole for each species according to the method of P.M.L. Tammes op cit. The results of percentage inhibition of growth, the ED values calculated from them and the calculated expected values are given in Tables 1-8.

Echinochloa crus-galli [1] = experiment: as above; conditions: 3 leaves
Experimental: as §1, §2, §3, §4

Digitaria sanguinalis = experiment: as above; conditions: for ED₅₀: 3-4 leaves; for ED₉₀: 3 leaves
Experimental: as §1, §2, §3, §4

Chenopodium album = experiment: as above; conditions: 2-6 leaves
Experimental: as §1, §2, §3, §4

Solanum nigrum = experiment: as above; conditions: 2-3 leaves
Experimental: as §1, §2, §3, §4

Amaranthus retroflexus = experiment: as above; conditions: for % inhibition of growth Amaranthus retroflexus 2-4 leaves: Compound 126 0 g/ha; for ED₉₀ Amaranthus retroflexus 2-4 leaves: applied alone
Experimental: as §1, §2, §3, §4

Abutilon theophrasti = experiment: as above; conditions: for % inhibition of growth Abutilon theophrasti 1-2 leaves: Compound 126 0 g/ha; for ED₅₀ Abutilon theophrasti 1-2 leaves: applied alone
Experimental: as §1, §2, §3, §4

Brassica kaber = experiment: as above; conditions: for % inhibition of growth Brassica kaber 2-3 leaves: Compound 126 0 g/ha; for ED₉₀ Brassica kaber 2-3 leaves: applied alone
Experimental: as §1, §2, §3, §4

[2] = system: Brachiaria plantaginea (BRAPL); experiment: Field experiment, post-emergence spray, % control of grass weed; conditions: 29 days after application
Experimental: (§5) The following control figures were recorded on the grass weeds Brachiaria plantaginea (BRAPL), Digitaria horizontalis (DIGHO) and Eleusine indica (ELEIN) 29 days after application.

[3] = system: Digitaria horizontalis (DIGHO); experiment: as above; conditions: 29 days after application
Experimental: as §5

Eleusine indica (ELEIN) = experiment: as above; conditions: 29 days after application
Experimental: as §5

Echinochloa crus-galli [4] = experiment: Glasshouse experiment 2, percentage phytotoxicity after 19 days
Experimental: Agricultural surfactant-nonylphenol ethylene oxide condensate containing 9 moles ethylene oxide was added to all spray dilutions to give 0.2% v/v concentration.
After spraying, the pots were arranged in randomised blocks in a glasshouse, watered as necessary, and assessed after 19 days for percentage phytotoxicity (reduction in green area compared with unsprayed plants) (0 = no effect; 100 = complete destruction).
The results were then used to plot an isobole with a "one-sided effect" according to the methods of P.M.L. Tammes op.cit.

maize var. Irla = experiment: Glasshouse experiment 4, percentage phytotoxicity on crop after 11 days; conditions: for % crop phytotoxicity Maize (3-4 leaves): Bromoxynil 0 g/ha; for ED₂₀ crop phytotoxicity Maize (3-4 leaves): applied alone
Experimental: Agricultural surfactant ('Agral') was added to the spray dilutions to give 0.2%v/v concentration.
After spraying the pots were arranged in randomised blocks in a glasshouse and water as necessary. After 11 days the plants were assessed for percentage phytotoxicity (reduction in green area compared with unsprayed plants (0 = no effect 100 = complete destruction).
E = X + Y […] where E, X and Y are percentage phytotoxicity.
The ED values were then used to plot an isobole for each mixture according to the method of P.M.L. Tammes op cit.

[5] = Bromoxynil alone 2,4,8,16,31 g/ha
[6] = Bromoxynil alone, 2 leaves, Table 6
[7] = Bromoxynil alone, 2 leaves, Table 7
[8] = Amaranthus retroflexus, read-out: % inhibition of growth Amaranthus retroflexus 2-4 leaves
[9] = Abutilon theophrasti, read-out: % inhibition of growth Abutilon theophrasti 1-2 leaves
[10] = Mutarda arvensis, read-out: % inhibition of growth Brassica kaber 2-3 leaves

## N#Cc1cc(Br)c(O)c(Br)c1 [Bromoxynil, 3,5-dibromo-4-hydroxybenzonitrile]
Eleusine indica; Bromoxynil alone, 3-4 leaves, Table 2
  ED₉₀: ED₉₀ (g/ha) ∞
Eleusine indica; Bromoxynil alone, 3 leaves, Table 3
  ED₉₀: ED₉₀(g/ha) ∞
Echinochloa crus-galli [1]; Bromoxynil alone, Table 3
  ED₉₀: ED₉₀(g/ha) ∞
Digitaria sanguinalis; Bromoxynil alone, Table 2
  ED₅₀: ED₅₀ (g/ha) ∞
Digitaria sanguinalis; Bromoxynil alone, Table 3
  ED₉₀: ED₉₀(g/ha) ∞
Chenopodium album; [5]
  % inhibition of growth: 21%
Chenopodium album; Bromoxynil alone
  ED₉₀: ED₉₀(g/ha) 69.34
Solanum nigrum; [5]
  % inhibition of growth: 91%
Solanum nigrum; Bromoxynil alone
  ED₉₀: ED₉₀(g/ha) 21.27
Amaranthus retroflexus; Bromoxynil alone, 2 leaves, Table 1
  ED₉₀: ED₉₀(g/ha) 120.3
Amaranthus retroflexus; Bromoxynil alone, 2 leaves, Table 5
  ED₉₀: ED₉₀(g/ha) 142.8
Amaranthus retroflexus; [6]
  ED₉₀: ED₉₀(g/ha) 142.9
Amaranthus retroflexus; [7]
  ED₉₀: ED₉₀(g/ha) 246.2
Amaranthus retroflexus; Bromoxynil 18 g/ha
  % inhibition of growth Amaranthus retroflexus 2-4 leaves: 0%
Amaranthus retroflexus; Bromoxynil 35 g/ha
  % inhibition of growth Amaranthus retroflexus 2-4 leaves: 4%
Amaranthus retroflexus; Bromoxynil 70 g/ha
  % inhibition of growth Amaranthus retroflexus 2-4 leaves: 8%
Amaranthus retroflexus; Bromoxynil 140 g/ha
  % inhibition of growth Amaranthus retroflexus 2-4 leaves: 84%
Amaranthus retroflexus; Bromoxynil 280 g/ha
  % inhibition of growth Amaranthus retroflexus 2-4 leaves: 90%
Amaranthus retroflexus
  ED₉₀ Amaranthus retroflexus 2-4 leaves: ED₉₀(g/ha) 233.3
Abutilon theophrasti; Bromoxynil alone, 1-2 leaves, Table 5
  ED₉₀: ED₉₀(g/ha) 119.9
Abutilon theophrasti; Bromoxynil alone, 1-2 leaves, Table 6
  ED₉₀: ED₉₀(g/ha) 129.6
Abutilon theophrasti; Bromoxynil alone, 1-2 leaves, Table 7
  ED₅₀: ED₅₀(g/ha) 78.6
Abutilon theophrasti; Bromoxynil alone, 3 leaves, Table 1
  ED₅₀: ED₅₀(g/ha) 106.3
Abutilon theophrasti; Bromoxynil 18 g/ha
  % inhibition of growth Abutilon theophrasti 1-2 leaves: 0%
Abutilon theophrasti; Bromoxynil 35 g/ha
  % inhibition of growth Abutilon theophrasti 1-2 leaves: 13%
Abutilon theophrasti; Bromoxynil 70 g/ha
  % inhibition of growth Abutilon theophrasti 1-2 leaves: 44%
Abutilon theophrasti; Bromoxynil 140 g/ha
  % inhibition of growth Abutilon theophrasti 1-2 leaves: 96%
Abutilon theophrasti; Bromoxynil 280 g/ha
  % inhibition of growth Abutilon theophrasti 1-2 leaves: 99%
Abutilon theophrasti
  ED₅₀ Abutilon theophrasti 1-2 leaves: ED₅₀(g/ha) 135.7
Brassica kaber; Bromoxynil alone, 2-3 leaves, Table 1
  ED₉₀: ED₉₀(g/ha) 67.0
Brassica kaber; [6]
  ED₉₀: ED₉₀(g/ha) 42.7
Brassica kaber; [7]
  ED₉₀: ED₉₀(g/ha) 63.9
Brassica kaber; Bromoxynil 18 g/ha
  % inhibition of growth Brassica kaber 2-3 leaves: 30%
Brassica kaber; Bromoxynil 35 g/ha
  % inhibition of growth Brassica kaber 2-3 leaves: 55%
Brassica kaber; Bromoxynil 70 g/ha
  % inhibition of growth Brassica kaber 2-3 leaves: 82%
Brassica kaber; Bromoxynil 140 g/ha
  % inhibition of growth Brassica kaber 2-3 leaves: 97%
Brassica kaber; Bromoxynil 280 g/ha
  % inhibition of growth Brassica kaber 2-3 leaves: 98%
Brassica kaber
  ED₉₀ Brassica kaber 2-3 leaves: ED₉₀(g/ha) 102.4
[2]; Bromoxynil 250g/ha
  % control observed: 0%
[3]; Bromoxynil 250g/ha
  % control observed: 0%
Eleusine indica (ELEIN); Bromoxynil 250g/ha
  % control observed: 0%
Echinochloa crus-galli [4]; applied alone
  activity on Echinochloa crus-galli: no activity

## CC1(C)CC(=O)C(C(=O)c2ccc(Cl)cc2[N+](=O)[O-])C(=O)N1 (stereo not shown) [Compound 1, 3-(4-chloro-2-nitrobenzoyl)-6,6-dimethylpiperidine-2,4-dione]
Eleusine indica; Compound 1 alone, 3-4 leaves
  ED₉₀: ED₉₀ (g/ha) 66.8
Digitaria sanguinalis; Compound 1 alone
  ED₅₀: ED₅₀ (g/ha) 21.6
Amaranthus retroflexus; Compound 1 alone, 2 leaves
  ED₉₀: ED₉₀(g/ha) 21.6
Abutilon theophrasti; Compound 1 alone, 3 leaves
  ED₅₀: ED₅₀(g/ha) 21.1
Brassica kaber; Compound 1 alone, 2-3 leaves
  ED₉₀: ED₉₀(g/ha) 58.1
[2]; Compound 1 @ 250g/ha
  % control observed: 60%
[2]; Compound 1 @ 500g/ha
  % control observed: 80%
[3]; Compound 1 @ 250g/ha
  % control observed: 70%
[3]; Compound 1 @ 500g/ha
  % control observed: 80%
Eleusine indica (ELEIN); Compound 1 @ 250g/ha
  % control observed: 70%
Eleusine indica (ELEIN); Compound 1 @ 500g/ha
  % control observed: 80%

## O=C1CCNC(=O)C1C(=O)c1ccc(C(F)(F)F)cc1[N+](=O)[O-] (stereo not shown) [Compound 74, 3-(2-nitro-4-trifluoromethylbenzoyl)piperidine-2,4-dione]
Eleusine indica; Compound 74 alone, 3 leaves
  ED₉₀: ED₉₀(g/ha) 260.4
Echinochloa crus-galli [1]; Compound 74 alone
  ED₉₀: ED₉₀(g/ha) 168.6
Digitaria sanguinalis; Compound 74 alone
  ED₉₀: ED₉₀(g/ha) 180.4
Chenopodium album; Compound 74 alone
  ED₉₀: ED₉₀(g/ha) 3.67
Solanum nigrum; Compound 74 alone
  ED₉₀: ED₉₀(g/ha) 21.45
Amaranthus retroflexus; Compound 74 alone, 2 leaves
  ED₉₀: ED₉₀(g/ha) 22.1
Abutilon theophrasti; Compound 74 alone, 1-2 leaves
  ED₉₀: ED₉₀(g/ha) 125.6
Maize var. Irla; Compound (74 or 99) 63 g/ha
  % crop phytotoxicity Maize (3-4 leaves): 0%
Maize var. Irla; Compound (74 or 99) 125 g/ha
  % crop phytotoxicity Maize (3-4 leaves): 0%
Maize var. Irla; Compound (74 or 99) 250 g/ha
  % crop phytotoxicity Maize (3-4 leaves): 3%
Maize var. Irla; Compound (74 or 99) 500 g/ha
  % crop phytotoxicity Maize (3-4 leaves): 6%
Maize var. Irla; Compound (74 or 99) 1000 g/ha
  % crop phytotoxicity Maize (3-4 leaves): 17%
Maize var. Irla; Compound (74 or 99) 2000 g/ha
  % crop phytotoxicity Maize (3-4 leaves): 63%
Maize var. Irla
  ED₂₀ crop phytotoxicity Maize (3-4 leaves): ED₂₀(g/ha) 780
Echinochloa crus-galli [4]; Compound 74 alone, dose giving 90% phytotoxicity
  ED₉₀: 82 g/ha

## CC1(C)CC(=O)C(C(=O)c2ccc(C(F)(F)F)cc2[N+](=O)[O-])C(=O)N1 (stereo not shown) [Compound 99, 3-(2-nitro-4-trifluoromethylbenzoyl)-6,6-dimethylpiperidine-2,4-dione]
Amaranthus retroflexus; Compound 99 alone, 2 leaves
  ED₉₀: ED₉₀(g/ha) 16.8
Abutilon theophrasti; Compound 99 alone, 1-2 leaves
  ED₉₀: ED₉₀(g/ha) 23.6
Brassica kaber; Compound 99 alone, 2 leaves
  ED₉₀: ED₉₀(g/ha) 54.9
Maize var. Irla; Compound (74 or 99) 63 g/ha
  % crop phytotoxicity Maize (3-4 leaves): 0%
Maize var. Irla; Compound (74 or 99) 125 g/ha
  % crop phytotoxicity Maize (3-4 leaves): 0%
Maize var. Irla; Compound (74 or 99) 250 g/ha
  % crop phytotoxicity Maize (3-4 leaves): 0%
Maize var. Irla; Compound (74 or 99) 500 g/ha
  % crop phytotoxicity Maize (3-4 leaves): 4%
Maize var. Irla; Compound (74 or 99) 1000 g/ha
  % crop phytotoxicity Maize (3-4 leaves): 50%
Maize var. Irla; Compound (74 or 99) 2000 g/ha
  % crop phytotoxicity Maize (3-4 leaves): 51%
Maize var. Irla
  ED₂₀ crop phytotoxicity Maize (3-4 leaves): ED₂₀(g/ha) 797

## CS(=O)(=O)c1ccc(C(=O)C2C(=O)CCNC2=O)c([N+](=O)[O-])c1 (stereo not shown) [Compound 110, 3-(4-methylsulphonyl-2-nitrobenzoyl)piperidine-2,4-dione]
Amaranthus retroflexus; Compound 110 alone 1,2,4,8,16,31,63 g/ha, 2 leaves
  % inhibition of growth: 100%
Amaranthus retroflexus; Compound 110 alone, 2 leaves
  ED₉₀: ED₉₀(g/ha) 12.6
Abutilon theophrasti; Compound 110 alone, 1-2 leaves
  ED₅₀: ED₅₀(g/ha) 22.3
Brassica kaber; Compound 110 alone, 2 leaves
  ED₉₀: ED₉₀(g/ha) 13.6

## CS(=O)(=O)c1ccc(C(=O)C2C(=O)CCNC2=O)c(Cl)c1 (stereo not shown) [Compound 126, 3-(2-chloro-4-methylsulphonylbenzoyl)piperidine-2,4-dione]
Amaranthus retroflexus; [8]
  inhibition at 1 g/ha: 0%
  inhibition at 2 g/ha: 50%
  inhibition at 4 g/ha: 91%
  inhibition at 8 g/ha: 91%
  inhibition at 16 g/ha: 99%
  inhibition at 31 g/ha: 100%
  inhibition at 63 g/ha: 100%
Amaranthus retroflexus
  ED₉₀ Amaranthus retroflexus 2-4 leaves: ED₉₀(g/ha) 7.6
Abutilon theophrasti; [9]
  inhibition at 1 g/ha: 0%
  inhibition at 2 g/ha: 38%
  inhibition at 4 g/ha: 56%
  inhibition at 8 g/ha: 68%
  inhibition at 16 g/ha: 88%
  inhibition at 31 g/ha: 94%
  inhibition at 63 g/ha: 96%
Abutilon theophrasti
  ED₅₀ Abutilon theophrasti 1-2 leaves: ED₅₀(g/ha) 20.1
Brassica kaber; [10]
  inhibition at 1 g/ha: 0%
  inhibition at 2 g/ha: 0%
  inhibition at 4 g/ha: 0%
  inhibition at 8 g/ha: 17%
  inhibition at 16 g/ha: 26%
  inhibition at 31 g/ha: 48%
  inhibition at 63 g/ha: 80%
Brassica kaber
  ED₉₀ Brassica kaber 2-3 leaves: ED₉₀(g/ha) 90.6
